Test [1] has as its target T1, Recombinant full-length HIV-1 Reverse Transcriptase (HIVrt) (Human immunodeficiency virus type 1 group M subtype B, UniProt P04585).
T1 construct: Recombinant full-length HIV-1 Reverse Transcriptase (HIVrt); purchased Abcam ab63979
Put plainly: Inhibition of HIV reverse transcriptase (RdDp assay). As to conditions: 1 nM HIVrt, 30° C., 40 min, 3H-TTP incorporation; Table 3 triphosphates. The format is biochemical. As to the method:
Recombinant full-length HIV-1 Reverse Transcriptase (HIVrt) was purchased from Abcam, catalog #ab63979. The last 385 nucleotide region of the HCV anti-genome complementary to the 5′ untranslated region (c5′UTR) was synthesized using T7 RNA polymerase Megascript kit from Ambion (Cat #AM1333). A DNA oligo served as an internal initiation primer and was purchased from IDT. Unless otherwise specified, reaction samples consisted of 20 nM c5′UTR RNA, 100 nM DNA primer, and 1 nM HIVrt, mixed together in a buffer containing 50 mM Tris pH 7.5, 100 mM KCl, 4 mM dithiothreitol (DTT), and 12.5 mM MgCl2. Reactions were initiated at 30° C. by adding 0.1 μM adenosine triphosphate (dATP), 0.1 μM cytosine triphosphate (dCTP), 1 μM guanosine triphosphate (dGTP), and 0.32 μM ^3H-thymidine triphosphate (^3H-TTP), in a final volume of 50 μL. After 40-mins incubation, the reaction was terminated by adding 60 μL of chilled 20% (w/v) trichloroacetic acid with 500 μM ATP to precipitate nucleic acids. After incubation at 4° C. for 1 h, the sample underwent filtration on a multiscreen BV […] 96-well plate (Millipore). 40 μL Microscint-20 (Perkin Elmer) was added to the well and the counts in the sample were determined by a Trilux Microbeta microplate scintillation reader (Wallac).
All data were analyzed with GraphPad Prism. The compound concentration at which the enzyme-catalyzed rate was reduced by 50% (IC50) was calculated by fitting the data to the equation Y=% Min+(% Max−% Min)/(1+X/IC50), where Y corresponds to the percent relative enzyme activity, % Min is the residual relative activity at saturating compound concentration, % Max is the relative maximum enzyme activity, and X corresponds to the compound concentration. The Ki was calculated using the Cheng-Prusoff equation assuming competitive inhibition relative to natural dNTP incorporation: K=IC50/(1+[dNTP]/Km), where [dNTP] is the concentration of natural dNTP and Km is the apparent Km for dNTP. The standard HIVrt RNA-dependent DNA polymerization (RdDp) assay was used to determine the IC50 values.

In test [2] the target is T2, Recombinant full-length HBV polymerase (HBVpol) (Hepatitis B virus genotype D subtype ayw, UniProt P03156).
T2 construct: Recombinant full-length HBV polymerase(HBVpol) was expressed in SF9 cells; made in house; host or cells: SF9 insect cells
In words: Inhibition of HBV polymerase (RdDp assay). The format is biochemical. Particulars: HBVpol expressed in SF9 cells, 30° C., 120 min, 3H-TTP incorporation; Table 3 triphosphates; read-out: HBVrt IC50.

The structures appear in SMILES notation. A value given as a limit tells only on which side of the number the result lay.

By IC50 is commonly meant the concentration at which inhibition is half-maximal.

T2 sequence (P03156 whole entry): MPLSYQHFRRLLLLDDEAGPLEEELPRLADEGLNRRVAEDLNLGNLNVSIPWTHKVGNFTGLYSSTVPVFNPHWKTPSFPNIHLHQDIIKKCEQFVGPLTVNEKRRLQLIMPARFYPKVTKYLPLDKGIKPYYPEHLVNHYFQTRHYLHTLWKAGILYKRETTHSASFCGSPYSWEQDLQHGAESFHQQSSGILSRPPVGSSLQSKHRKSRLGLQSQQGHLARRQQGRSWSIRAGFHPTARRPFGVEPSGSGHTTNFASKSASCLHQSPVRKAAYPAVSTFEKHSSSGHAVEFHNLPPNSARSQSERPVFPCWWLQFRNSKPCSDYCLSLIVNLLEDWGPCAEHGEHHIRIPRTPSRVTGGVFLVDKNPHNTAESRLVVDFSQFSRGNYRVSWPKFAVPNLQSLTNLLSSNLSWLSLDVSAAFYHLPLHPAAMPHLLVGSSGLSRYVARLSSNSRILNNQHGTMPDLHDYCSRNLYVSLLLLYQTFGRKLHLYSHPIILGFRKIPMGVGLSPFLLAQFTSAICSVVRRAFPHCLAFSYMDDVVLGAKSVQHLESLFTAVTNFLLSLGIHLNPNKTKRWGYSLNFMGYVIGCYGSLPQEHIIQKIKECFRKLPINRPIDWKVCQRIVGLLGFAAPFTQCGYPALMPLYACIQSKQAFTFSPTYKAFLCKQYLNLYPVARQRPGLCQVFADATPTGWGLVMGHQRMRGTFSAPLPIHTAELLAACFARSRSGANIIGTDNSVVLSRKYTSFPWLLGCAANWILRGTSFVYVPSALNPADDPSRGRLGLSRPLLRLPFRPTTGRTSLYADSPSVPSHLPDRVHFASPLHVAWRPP

On to `C=C1[C@@H](n2cc(C)c(=O)[nH]c2=O)C[C@H](O)[C@@]1(F)COP(=O)(O)OP(=O)(O)OP(=O)(O)O` [Example 24, ((1S,3S,5S)-1-Fluoro-5-hydroxy-3-(5-methyl-2,4-dioxo-3,4-dihydropyrimidin-1(2H)-yl)-2-methylenecyclopentyl)methyl Tetrahydrogen Triphosphate], for which the IC50 in test [1] turned out to be 267 nM; in test [2], 2.9 nM.
For `C=C1[C@@H](n2ccc(N)nc2=O)C[C@H](O)[C@@]1(CF)COP(=O)(O)OP(=O)(O)OP(=O)(O)O` [Example 29, ((1S,3S,5S)-3-(4-Amino-2-oxopyrimidin-1(2H)-yl)-1-(fluoromethyl)-5-hydroxy-2-methylenecyclopentyl)methyl Tetrahydrogen Triphosphate], in that order: 326 nM and 380 nM.
Regarding `C=C1[C@@H](n2cnc3c(=O)[nH]c(N)nc32)C[C@H](O)[C@@]1(F)COP(=O)(O)OP(=O)(O)OP(=O)(O)O` [Example 25, ((1S,3S,5S)-3-(2-Amino-6-oxo-1,6-dihydro-9H-purin-9-yl)-1-fluoro-5-hydroxy-2-methylenecyclopentyl)methyl Tetrahydrogen Triphosphate], the figures for the IC50 in test [1] and in test [2] were 251 nM and 9.9 nM, respectively.
As to `C=C1[C@@H](n2cnc3c(=O)[nH]c(N)nc32)C[C@H](O)[C@@]1(CF)COP(=O)(O)OP(=O)(O)OP(=O)(O)O` [Example 28, ((1S,3S,5S)-3-(2-Amino-6-oxo-1,6-dihydro-9H-purin-9-yl)-1-(fluoromethyl)-5-hydroxy-2-methylenecyclopentyl)methyl Tetrahydrogen Triphosphate], the IC50 in test [1] is 749 nM.
Same read-out and setting: next, `C#C[C@]1(COP(=O)(O)OP(=O)(O)OP(=O)(O)O)C(=C)[C@@H](n2cnc3c(N)ncnc32)C[C@@H]1O` [Example 36]: 33.1 nM.
The same measure, in the same setting: next, `C=C1[C@@H](n2cnc3c(=O)[nH]c(N)nc32)C[C@H](O)[C@@]1(C#N)COP(=O)(O)OP(=O)(O)OP(=O)(O)O` [Example 35, ((1S,3S,5S)-3-(2-Amino-6-oxo-1,6-dihydro-9H-purin-9-yl)-1-cyano-5-hydroxy-2-methylenecyclopentyl)methyl Tetrahydrogen Triphosphate]: 260 nM; `C=C[C@]1(COP(=O)(O)OP(=O)(O)OP(=O)(O)O)C(=C)[C@@H](n2cnc3c(N)ncnc32)C[C@@H]1O` [Example 37, ((1R,3S,5S)-3-(6-Amino-9H-purin-9-yl)-5-hydroxy-2-methylene-1-vinylcyclopentyl)methyl Tetrahydrogen Triphosphate]: > 10000 nM.
The same measure, in the same setting: next, `C=C1[C@@H](n2cc(C)c(=O)[nH]c2=O)C[C@H](O)[C@@]1(CF)COP(=O)(O)OP(=O)(O)OP(=O)(O)O` [Example 30, ((1S,3S,5S)-1-(Fluoromethyl)-5-hydroxy-3-(5-methyl-2,4-dioxo-3,4-dihydropyrimidin-1(2H)-yl)-2-methylenecyclopentyl)methyl Tetrahydrogen Triphosphate]: 1330 nM; `C=C1[C@H](COP(=O)(O)OP(=O)(O)OP(=O)(O)O)[C@@H](O)C[C@@H]1n1ccc2c(N)ncnc21` [Example 22, ((1R,3S,5S)-3-(4-Amino-7H-pyrrolo[2,3-d]pyrimidin-7-yl)-5-hydroxy-2-methylenecyclopentyl)methyl Tetrahydrogen Triphosphate]: 158 nM; `C=C1[C@@H](n2cnc3c(N)ncnc32)C[C@H](O)[C@@]1(C#N)COP(=O)(O)OP(=O)(O)OP(=O)(O)O` [Example 34, ((1S,3S,5S)-3-(6-Amino-9H-purin-9-yl)-1-cyano-5-hydroxy-2-methylenecyclopentyl)methyl Tetrahydrogen Triphosphate]: > 10000 nM.
For `C=C1[C@@H](n2cnc3c(N)ncnc32)C[C@H](O)[C@@]1(CCl)COP(=O)(O)OP(=O)(O)OP(=O)(O)O` [Example 31, ((1S,3S,5S)-3-(6-Amino-9H-purin-9-yl)-1-(chloromethyl)-5-hydroxy-2-methylenecyclopentyl)methyl Tetrahydrogen Triphosphate], the IC50 in test [1] is 363 nM.

The record behind these values is patent US20220033406A1, “C[…] AS ANTI-VIRALS” (priority 2018, published 2022).
